Reference: patent US20110245334A1, “USE OF RACEMATES OF PINOCEMBRIN IN PREPARING MEDICAMENTS FOR TREATING STROKE” (CSPC Zhonggi Pharmaceutical Technology (Shijiazhuang) Co. …, priority 2008, published 2011)

Legend:
Type in all cases: in vivo, rat
MCAO rats = assay: Neurobehavioral examination (Bederson's score), MCAO acute ischemic stroke
Experimental: Experimental animals: 100 male SD rats with a body weight of 250-280 g were purchased from the Experimental Animals Institute of the Chinese Academy of Medical Science. The rats were grouped randomly as a sham operation group, a model group, pinocembrin groups and a nimodipine group (3 mg/kg).
Experimental model: the model of acute ischemic stroke was made by middle cerebral artery occlusion (MCAO).
The string occlusion method in middle cerebral artery as established by Zea Longa was adopted with proper improvements. 400 mg/kg 10% chloral hydrate was intraperitoneally injected in rats. The external carotid artery (ECA) was separated and ligated at the site where the artery emitted for about 0.8 cm. The end of ECA closing to the heart was clipped by an artery clip. A 2 mm V-shaped incision was made from ECA ligation to ECA bifurcation. A nylon line was inserted gently into […] and then into internal carotid artery (ICA) through the bifurcation of ECA and ICA after loosening the artery clip. The nylon line was pushed into the brain through ICA and inserted in depth of 18.5±0.5 mm when resistance was felt slightly. The nylon line should reach smaller anterior cerebral artery through the beginning of middle cerebral artery (MCA) and ICA could be ligated and sutured. Stump of the nylon line should be reserved with 1 cm outside the skin.
Neurobehavioral examination was performed before the animals were put to death. The rats were raised off the ground for about 1 chi (1 chi=⅓ meter) to observe the state of two forelimbs. The rats were placed on the ground and were pushed by their shoulders to observe differences of their resistance. The rats were placed on the ground and were observed by the way of walking. Four-stage scoring method […] was adopted. The higher the score was, the more serious injury existed in their neurobehavior.
Bederson's scoring standard:
(1) If the rats acted completely normal, score 0 was recorded.
(2) When the rats were raised off the ground, if the rats rotated or retracted forelimb of surgery-contralateral side internally, score 1 was recorded.
(3) When the rats were placed on the ground and squeezed with the hand to examine the resistance of both sides, if the resistance of surgery-contralateral side declined, score 2 was recorded.
(4) When the rats were placed on the ground to observe the way of walking, if the rats circled around the surgery-contralateral side, score 3 was recorded.
(5) If the rats were injured too seriously to move by themselves, score 4 was recorded.

tMCAO rats = assay: Infarct volume (TTC), tMCAO time window study; conditions: 2 hours ischemia and 24 hours reperfusion
Experimental: 1. In the test, transient middle cerebral artery occlusion (tMCAO) model of rats was adopted. The reperfusion was performed after focal cerebral ischemia for 2 hours so as to inspect therapeutic time window of pinocembrin after focal cerebral ischemia. The rats were administered by pinocembrin racemate (1 mg/kg, 5 mg/kg, intravenous injection) after reperfusion 1 hour, 4 hours and 6 hours (i.e., ischemia 3 hour, 6 hours and 8 hours). (R)-pinocembrin and (S)-pinocembrin (1 mg/kg, 5 mg/kg, intravenous injection) were administered after reperfusion 1 hour and 4 hours (i.e., ischemia 3 hour and 6 hours). The therapeutic time windows of these drugs in focal cerebral ischemia were assessed by studying their effects to neurological symptom scores, infarct sizes and brain water contents during 24 hours after tMCAO.
2.4 Experimental Grouping and Administration • Sham operation group (intravenous injection of normal saline after 3 hours of ischemia); • Model group (intravenous injection of 50 mg/kg hydroxypropyl β-cyclodextrin after 3 hours of ischemia); • Nimodipine group (1 mg/kg, administered after 3 hours of ischemia); • Pinocembrin racemate group (1 mg/kg, 5 mg/kg, administered after 3, 6 and 8 hours of ischemia); • (R)-pinocembrin group (1 mg/kg, 5 mg/kg, administered after 3 and 6 hours of ischemia); • (S)-pinocembrin group (1 mg/kg, 5 mg/kg, administered after 3 and 6 hours of ischemia).
First administration was performed by intravenous injection, and intraperitoneal injection was carried out once 12 hours later with a dose 1.5 times of that for intravenous injection.
After neurobehavioral scoring, the rats were put to death by decollation and their brain tissues were taken out quickly and put into a refrigerator of −20° C. 10 min later, the brain tissues were moved to an environment of room temperature. After the olfactory bulb, cerebellar and lower brain stem were resected, the brain tissue was cut into six continuous coronal slices with an interval of 2 mm. Then the brain slices were quickly put into 5 ml solution containing 2% TTC and incubated at a constant temperature of 37° C. and in a condition of darkness for 30 min. During the time, the brain slices were tipped every 5 min. […] Every group of brain slices were put in order and photographed. The photographs were processed by an image analysis system and the infarct areas in each slice were calculated. The infarct volume of each slice was calculated via multiplying the infarct area by thickness of slice (2 mm), and the infarct volume was the sum of infarct volumes of all slices. The infarct volume percentage was expressed as: sick-side infarct volume/total sick-side brain volume.

plasma ET-1 = assay: Plasma ET-1 (radioimmunoassay) in SHRSP; set-up: ET-1 content: unit not given here; conditions: plasma, SHRSP rats
Experimental: 5) Blood of 2 mL was dropped rapidly in a cuvette with 30 μL 7.5% EDTA-2Na and 40 μL aprotinin and mixed. After centrifuged for 5 min at 3000 rpm, plasma ET-1 in liquid supernatant was determined by isotope radioimmunoassay.

Row | Structure (SMILES) | Bederson's score (MCAO rats; 3 mg/kg) | Bederson's score (MCAO rats; 10 mg/kg) | Bederson's score (MCAO rats; 30 mg/kg) | Infarct percentage (%) (tMCAO rats; 1 mg/kg, 3 h) | Infarct percentage (%) (tMCAO rats; 1 mg/kg, 6 h) | Infarct percentage (%) (tMCAO rats; 1 mg/kg, 8 h) | Infarct percentage (%) (tMCAO rats; 5 mg/kg, 3 h) | Infarct percentage (%) (tMCAO rats; 5 mg/kg, 6 h) | Infarct percentage (%) (tMCAO rats; 5 mg/kg, 8 h) | ET-1 content (plasma ET-1; 3 mg/kg) | ET-1 content (plasma ET-1; 10 mg/kg) | ET-1 content (plasma ET-1; 30 mg/kg)
1 | O=C1CC(c2ccccc2)Oc2cc(O)cc(O)c21 (racemic) [Pinocembrin racemate, pinocembrin racemate] | 2.4 ± 0.7 | 1.8 ± 0.6 | 1.5 ± 0.3 | 16.59 ± 7.98 | 23.01 ± 11.00 | 27.16 ± 13.69 | 13.64 ± 6.32 | 15.03 ± 4.07 | 28.32 ± 18.65 | 221.4 ± 20.4 | 209.2 ± 16.7 | 182.4 ± 24.2
2 | COCCOC(=O)C1=C(C)NC(C)=C(C(=O)OC(C)C)C1c1cccc([N+](=O)[O-])c1 (stereo not drawn) [Nimodipine, reference compound] | 2.5 ± 0.7 | – | – | 31.30 ± 10.31 | – | – | – | – | – | 174.8 ± 20.8 | – | –
